Publication PMC12670400, “LEKTI-Grafted Sunflower Trypsin Inhibitor: A Potential Therapeutic for Skin Diseases” (Journal of Medicinal Chemistry, 2025)
Bridge positions count the residues as written; N and C are the ends. Peptide text beside a SMILES is read from it.

Target: T1, KLK5 (Homo sapiens, UniProt Q9Y337)
T1 construct: purchased R&D Systems 1108-SE
T1 sequence (Q9Y337 23-293): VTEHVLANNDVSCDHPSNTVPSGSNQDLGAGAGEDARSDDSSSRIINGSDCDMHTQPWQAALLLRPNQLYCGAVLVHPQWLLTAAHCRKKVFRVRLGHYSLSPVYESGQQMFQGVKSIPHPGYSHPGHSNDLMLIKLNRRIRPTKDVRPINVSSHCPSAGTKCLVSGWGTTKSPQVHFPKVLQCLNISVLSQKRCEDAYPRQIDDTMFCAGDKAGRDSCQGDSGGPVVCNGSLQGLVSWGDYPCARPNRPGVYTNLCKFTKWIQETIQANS
Test: Protease activity assay: inhibition of recombinant KLK5 (Boc-VPR-AMC substrate)
Type: biochemical
Details: ratio of IC50 values
Experimental: Inhibitory activity against KLK5 was evaluated using the fluorogenic substrate Boc-VPR-AMC for KLK5 (Table ). […] The P1–P1′ reactive site (Arg5 to Ser6) is critical for inhibitor binding, with the P1′ position contributing up to 50% of the total association energy. , The conserved serine at P1′ in Bowman-Birk inhibitors (BBIs) is essential for function. […] Preservation of serine in the P1′ position restored inhibitory activity seen in 5 and 6. Preserving the native serine restored efficacy to the nanomolar range (5: 31 ± 7 nM; 6: 114 ± 11 nM).
Methods for biological experiment
SFTI analogues were created by individual amino acid substitutions in PYMOL (Python Molecular Graphics System) using the existing solution NMR structure of native SFTI - 1 (1JBL) found in the RCSB (Research Collaboratory for Structural Bioinformatics) database. Residues of 2 were mutated as follows: L5R, I10H, and F12W with conserved SFTI-1 backbone structure. Other SFTI based analogues were further modified using PYMOL. Currently, there are no SFTI-1 and Kallikrein 5 co-crystal structures found in the RCSB database. Superimposing the existing crystal structure of SFTI-1 and Trypsin complex (4XOJ) with Kallikrein 5 crystal structure (2PSX) was performed with PYMOL. Ab-initio docking between KLK5 and 2 were performed with HADDOCK 2.4 1, 2, with binding active site parameter set to Arg2, Cys3, Thr4, Arg5, Ser6 for 2 and Ser195, His57, and Asp102 for KLK5 catalytic triad. PRODIGY 3-5, set at 25 °C, was used to predict dissociation constant and binding interactions of docked clusters. Structural visualization and alignment were performed with PYMOL 6, and comparative sequence analysis was performed with MEGA11 7.
A fluorescence spectrometer using SpectraMax® i3x plate reader (Molecular Devices, United States) was used to measure the relative fluorescence unit (RFU) on a 96-well black microplate (Grenier Bio-one, cat no. 655074). The wavelengths were set to 360/460 nm (excitation/emission) for the substrate Boc-VPR-AMC (Bachem AG, cat no. 4003460) and 320/405nm for the substrate Mca-RPKPVE-Nval-WRK(Dnp)-NH2 Fluorogenic MMP Substrate (R&D Systems Biotechne, cat no.ES002). The Boc-VPR-AMC stock solution was prepared by dissolving the solid form in dimethyl sulfoxide to 100 mM. Mca-RPKPVE-Nval-WRK(Dnp)-NH2 fluorogenic MMP Substrate is supplied as stock solution at 10.0 mg/mL in dimethyl sulfoxide. Boc-VPR-AMC was used as a substrate for KLK5, 8 and 14. Mca-RPKPVE-Nval-WRK(Dnp)-NH2 was used as a substrate for KLK7. The ligand-only solution serves as a negative control (minimum RFU, 100% inhibition), and enzyme-only was served as positive (maximum RFU, 0% inhibition). The activities of proteases were measured and readout against the standard curve made in serial dilutions of tested recombinant KLKs, ranging from 0nM to 60nM. Each assay was done in triplicates and repeated at least for three times […]
Assessment of analogue mediated inhibition of KLK5, KLK7, KLK8, and KLK14 […]
Recombinant KLK5 (R&D Systems, cat no. 1108-SE) was diluted to a final concentration of 10 nM in 1X PBS (pH 8.0). KLK5 was pre -incubated on ice for 1 hour with serial dilutions of SFTI-derived analogues to assess inhibitory activity. After incubation, 20 µL of each mixture was transferred to we lls of a 96-well microplate in triplicates. The enzymatic reaction was initiated by adding 100 µL of Boc -VPR-AMC substrate (final concentration 100 µM) to each well. Fluorescence (RFU) was measured using a SpectraMax® i3x plate reader with chamber temperature maintained at 37°C. Readings were started at 0 minutes (baseline) and another […]
Recombinant KLK7 (R&D Systems , cat no. 2624-SE) and KLK14 (R&D Systems, cat no. 2664-SE) were activated by adding 1 mM CaCl ₂ 0.05% v/v Brij-35 (Sigma, cat no. […]
incubated at 37°C for 1 hour. Reactions were stopped by adding EDTA to a final concentration of 50 mM (Sigma, cat no. EDS-100G) KLK8 (catalytic domain only; R&D Systems, cat no. 2025-SE-010) was activated separately with 11 nM lysyl […]

C[C@@H](O)[C@@H]1NC(=O)[C@@H]2CSSC[C@H](NC(=O)[C@H](CCC(=O)O)NC(=O)[C@@H]3CCCN3C(=O)[C@@H]3CCCN3C(=O)[C@H](CC(N)=O)NC(=O)[C@H](CO)NC(=O)[C@H](CCCNC(=N)N)NC1=O)C(=O)N[C@@H](Cc1c[nH]c3ccccc13)C(=O)N1CCC[C@H]1C(=O)N[C@@H](CC(N)=O)C(=O)NCC(=O)N[C@@H](Cc1ccccc1)C(=O)N2 [compound 7] (cyclo(GFCTRSNPPECWPN); disulfide 3-11)
increase in KLK5 inhibitory potency (IC50) compared to 2: 4 fold
increase in KLK5 inhibitory potency (IC50) relative to 1: 16 fold
